Like-named read-outs stand apart in the source and are kept apart here.
How the values were obtained:
[1] = tested on: early and late stage gametocytes (3D7elo1-pfs16-CBG99); experiment: Gametocyte susceptibility, CBG99-luciferase assay; type: cell-based; conditions: Plasmodium falciparum
Method: This was determined using two separate assays. The first involved MitoTracker staining and high-content imaging. Mature (stage V) gametocytes were generated from NF54 ABS cultures as described elsewhere ([Plouffe et al., 2016]). Briefly, asexual parasites were cultured at 5% hematocrit in O^+ human erythrocytes in serum-containing complete media (RPMI 1640 (Life Technologies), 0.05 mg/ml gentamicin (Life Technologies), 0.014 mg/ml hypoxanthine (Sigma), 38.4 mM HEPES (Sigma), 0.2% (w/v) sodium bicarbonate (Sigma), D-glucose 0.2% (w/v) (Sigma), 3.4 mM sodium hydroxide (Sigma), 4.3% (v/v) heat-inactivated human serum (O^+, Interstate Blood bank), and 0.2% (w/v) AlbuMAX® II (Life Technologies)). Parasites were cultured at 37 °C under low-oxygen conditions (3% O2, 5% CO2, 92% N2) and parasitemias were maintained between 0.5% and 3% in cultures with 5% hematocrit. Ring-stage parasites underwent three rounds of synchronization with 5% (w/v) D-Sorbitol (Sigma), on days -8, -6 and -4 relative to the day of initiating gametocyte production. Trophozoite-stage parasites were shaken overnight at 37°C until day -1. On day -2 only 50% of the media was exchanged to provide additional stress to cultures, whose parasitemias had typically attained 7-10%. Complete media exchange was performed daily from day -1 onwards. Stage V gametocytes were treated with 50 mM N-acetyl glucosamine (Sigma) on days 0-9. […] The second assay assessed gametocyte susceptibility using a luciferase-based assay with 3D7elo1-pfs16-CBG99 transgenic parasites ([Cevenini et al., 2014]). […] Cell viability was then evaluated by adding a non-lysing formulation of 0.5 mM D-Luciferin substrate and measuring luciferase activity for 0.5 s on a Varioskan™ Flash Multimode Reader (Thermo Scientific). The percent of viability was calculated as a function of drug concentration and IC50 values were derived by non-linear regression analysis and curve fitting (using GraphPad Prism 6.0).

[2] = tested on: CDPK1 cKD line; experiment: Compound susceptibility assay using cKD lines (72 h, Renilla luciferase); type: cell-based, Plasmodium falciparum; conditions: for IC50: Plasmodium falciparum, CDPK1 cKD line
Source text: (§1) To study the interaction between the compounds and PKG (PF3D7_1436600), AAT (PF3D7_1231400), CDPK1 (PF3D7_0217500), TKL3 (PF3D7_1349300), PP1 (PF3D7_1414400), and URP (PF3D7_0808300), cKD lines were generated by fusing the transcripts with RNA aptamers for translation regulation with the TetR/DOZI system ([Ganesan et al., 2016]). The right homology regions (RHR) of each target gene were amplified by PCR, using the primers listed in Table S1 (A), and along with the left homology regions (LHR) were fused to the re-codonized 3'-end region of the gene. Single guide RNA fragments were synthesized using the BioXP™ 3200 System (SGI-DNA; Table S1 (A)) and were cloned into the pSN054 vector ([Nasamu et al., 2019]) to install the C-terminal epitope tags V5 and 2x-hemagglutinin (HA) followed by a 10x RNA aptamer array and the TetR-DOZI expression cassette. This cassette also contained Blasticidin S-deaminase for selection in the parasites and the reporter gene Renilla luciferase (RLuc). The 3'-end of each target was re-codonized to avoid further modifications of the edited locus in the parasite via removal of the PAM site. Donor vector generation was carried out via Gibson assembly, and the final construct sequence was confirmed by restriction digests and Sanger sequencing.
(§2) Transfection into parasites was carried out by preloading erythrocytes with linearized vectors as described previously ([Deitsch et al., 2001]). Briefly, 50 μg of purified plasmid DNA was mixed with human RBC and subjected to 8 square wave electroporation pulses of 365 V for 1 ms each, separated by 0.1 s in a 0.2 cm cuvette. The plasmid DNA preloaded cells were inoculated with NF54 parasites expressing Cas9 and T7 RNA polymerase, maintained in 500 nM anhydrotetracycline (aTc, Sigma-Aldrich 37919), and drug selection with 2.5 μg/mL of Blasticidin (RPI Corp B12150-0.1) was initiated four days after transfection. Emergence of transfectants was monitored via Giemsa smears and RLuc measurements.
(§3) Synchronized ring-stage cKD parasites in varying aTc concentrations (high = 50 nM, intermediate = 1.5 nM, low = 1 nM, and no aTc) were distributed into the drug plate. No-drug treatment and treatment with a lethal dose of chloroquine (200 nM) served as reference controls.

[3] = tested on: PKG cKD line; experiment: as above; type: cell-based, Plasmodium falciparum; conditions: for IC50: Plasmodium falciparum, PKG cKD line
Source text: as §1, §2, §3

[4] = tested on: PP1 cKD line; experiment: as above; type: cell-based, Plasmodium falciparum; conditions: Plasmodium falciparum
Source text: as §1, §2, §3

[5] = tested on: AAT cKD line; experiment: as above; type: cell-based, Plasmodium falciparum; conditions: for IC50: Plasmodium falciparum, AAT cKD line
Source text: as §1, §2, §3

[6] = tested on: TKL3 cKD line; experiment: as above; type: cell-based, Plasmodium falciparum; conditions: for IC50: Plasmodium falciparum, TKL3 cKD line
Source text: as §1, §2, §3

[7] = tested on: URP cKD line; experiment: as above; type: cell-based, Plasmodium falciparum; conditions: Plasmodium falciparum
Source text: as §1, §2, §3

`CC(C)(CN)c1nc(-c2ccc(Cl)c(O)c2)c(-c2ccncc2)[nH]1` [MMV030084] showed an IC50 ([1]; read-out: IC50, sexual gametocyte stage (Figure 1B)) of over 37500 nM, an IC50 ([1]; CBG99-luciferase assay, 48 h, read-out: IC50, early stage gametocytes) of over 40000 nM and an IC50 ([1]; CBG99-luciferase assay, 48 h, read-out: IC50, late stage gametocytes) of over 40000 nM. The IC50 ([2]; Control, [aTc] used 50.0) was 45.4 nM, the IC50 ([2]; KD, [aTc] used 1.0) was 41.5 nM and the “Change in susceptibility when CDPK1 was knocked down” value ([2]; cKD vs control) was “No change”. For the same molecule, the IC50 ([3]; Control, [aTc] used 50.0) was 27.4 nM, the IC50 ([3]; KD, [aTc] used 1.0) was 6.6 nM and the “Sensitization when PKG was knocked down” value ([3]; cKD vs control) was 4.2 fold. For the same molecule, the IC50 ([4]; Control, [aTc] used 50.0) was 39.2 nM, the IC50 ([4]; KD, [aTc] used 1.5) was 57 nM and the IC50 ([5]; Control, [aTc] used 50.0) was 50.6 nM. For the same molecule, the IC50 ([5]; KD, [aTc] used 0.0) was 29.8 nM, the “Decrease in IC50 under AAT cKD conditions” value ([5]; cKD vs control) was 1.7 fold and the IC50 ([6]; Control, [aTc] used 50.0) was 42.4 nM. The IC50 ([6]; KD, [aTc] used 0.0) was 88.6 nM, the “Increase in IC50 induced by TKL3 knockdown” value ([6]; cKD vs isogenic control) was 2.1 fold and the IC50 ([7]; Control, [aTc] used 50.0) was 35.9 nM. For the same molecule, the IC50 ([7]; KD, [aTc] used 0.0) was 42.4 nM.
